Like-named read-outs stand apart in the source and are kept apart here. Blank lines part the entries; values can stand above or below the compound they belong to.
How the values were obtained:
[1] = tested on: A375 melanoma cells; test: [3H]-thymidine incorporation (DNA biosynthesis), A375; type: cell-based, human; conditions: read-out: IC50, effect on DNA biosynthesis ([3H]-thymidine incorporation)
Experimental: (§1) The inhibition of DNA biosynthesis was evaluated using [^3H]-thymidine incorporation into the DNA of melanoma cells (C32, A375) and fibroblasts treated with the studied compounds [21]. The cells were briefly seeded in 24-well plates (1 × 10^5 cells per well) and allowed to adhere for 24 h. […] After incubation for 24, 48, and 72 h, the cells were rinsed three times with PBS. Then, cells were lysed in 1 mL of 0.1 M NaOH containing 1% SDS. The cell lysate was moved into scintillation vials containing scintillation liquid, and the radioactivity of the samples was measured using a liquid scintillation analyzer (Perkin-Elmer, Waltham, MA, USA).

[2] = tested on: C32 melanoma cells; test: [3H]-thymidine incorporation (DNA biosynthesis), C32; type: cell-based, human; conditions: read-out: IC50, effect on DNA biosynthesis ([3H]-thymidine incorporation)
Experimental: as §1

[3] = tested on: human skin fibroblasts (CCD25Sk); test: [3H]-thymidine incorporation (DNA biosynthesis), normal cells; type: cell-based; conditions: Homo sapiens, Skin fibroblast, read-out: IC50, effect on DNA biosynthesis ([3H]-thymidine incorporation)
Experimental: as §1

[4] = tested on: A375 melanoma cells; test: Apoptosis assay, annexin V/PI flow cytometry, A375; type: cell-based, human; conditions: 48 h
Experimental: Firstly, cells were placed in 6-well plates at a density of 1 × 10^5 cells per well and allowed to adhere for 24 h. Then, cells were treated with 25 µM, 50 µM, and 100 μM of the selected flavonoids (1, 6, 15, 16, 17, 37) and incubated for 48 h. Floating and adherent cells were collected and assayed using the manufacturer’s protocol supported by the Dead Cell Apoptosis Kit for flow cytometry. Concisely, 100 μL of an annexin-binding buffer containing a 5 μL annexin V-FITC conjugate solution and 1 μg/mL PI (propidium iodide) was used to disperse the cells. After 15 min of incubation, an additional 400 μL of the mentioned buffer was added. The cells were analyzed with a DxFLEX flow cytometer (Beckman Coulter, Brea, CA, USA).

[5] = tested on: caspases, PARP, phospho-RSK in A375 cells; test: Western immunoblot of apoptosis mediators and RSK, A375; type: cell-based, human; conditions: A375, 48 h, Western blot
Experimental: (§2) Floating cells were harvested by centrifugation of the conditioned media (300× g, 5 min). Cell pellet and adherent cells were lysed in a cell lysis buffer supplemented with inhibitors of proteases and phosphatases. The cell lysate was sonicated (2 × 10 s) on ice with an ultrasonic homogenizer (UP200S, Hielscher Ultrasonics GmbH, Teltow, Germany) and centrifuged for 10 min at 10,000× g. The supernatant was collected and stored in a freezer at −70 °C. Protein concentrations in the cell supernatants were determined using a Lowry assay. Obtained proteins were dissolved on SDS-PAGE gels (7.5%, 10%, or 12%) using the Mini-Protean Tetra system. The proteins were transferred to nitrocellulose membranes using the Mini Trans-Blot Cell wet blotting system. The 5% skim milk was used to block membranes. Then, membranes were probed for 24 h at 4 °C with the following antibodies: anti-phospho-RSK, anti-RSK, anti-PARP, anti-cleaved PARP, anti-caspase-8, anti-caspase-9, anti-caspase-7, anti-caspase-3, and anti-actin. Membranes were incubated with an ECL-HRP (enhanced chemiluminescence-horseradish peroxidase) substrate, and the signal was spotted using the BioSpectrum Imaging System and VisionWorks LS software 7.0 (Ultra-Violet Products, Ltd., San Gabriel, CA, USA). The intensity of the bands was quantified by densitometric analysis using UVIBand software, version 15.08d (Uvitec Ltd., Cambridge, UK).

[6] = tested on: caspases, PARP, phospho-RSK in C32 cells; test: Western immunoblot of apoptosis mediators and RSK, C32; type: cell-based, human; conditions: C32, 48 h, Western blot
Experimental: as §2

[7] = tested on: cleaved caspase-3 and cleaved caspase-7 in C32 cells; test: Immunofluorescence of cleaved caspase-3/-7, C32; type: cell-based, human; conditions: C32, 48 h, immunofluorescent staining
Experimental: Firstly, to examine fluorescent signals, cells were placed in the bottom of 96-well black plates at 1 × 10^4 cells per well and permitted to adhere for 24 h. […] After incubating and removing the medium, cells were fixed in 4% paraformaldehyde for 15 min. Later, cells were rinsed three times with PBS and permeabilized with 0.1% Triton X-100 for 5 min at room temperature. The 10% heat-inactivated goat serum in the PBS was used to block non-specific binding. Subsequently, cells were treated with the following antibodies overnight: anti-cleaved caspase 3 and anti-cleaved caspase-7. […] Cell nuclei were stained with Hoechst 33342 and F-actin was stained with Phalloidin-Atto 488. Fluorescent signals were captured using a BD Pathway 855 confocal microscope (Becton Dickinson, Franklin Lakes, NJ, USA). The mean fluorescence intensity was calculated using ImageJ software (National Institutes of Health, Bethesda, Rockville, MD, USA).

[8] = tested on: C32 melanoma cells; test: MTT cell viability assay, C32; conditions: read-out: IC50, cytotoxic activity, MTT test;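 further: MTT added for 2 h, cells lysed in DMSO, absorbance read at 570 nm, compound vehicle kept at or below 0.1% DMSO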
Experimental: (§3) The MTT colorimetric assay was performed as a preliminary evaluation of the cytotoxicity of the selected flavonoids according to the method described and validated by Strawa et al. [21]. Briefly, melanoma cells and fibroblasts were seeded in 96-well microplates at a density of 1 × 10^4 cells per well. Fibroblasts were used as a control cell line in order to assess the selectivity of the compounds. […] Subsequently, the cells were washed with PBS, incubated with MTT solution for 2 h, and lysed with dimethyl sulfoxide (DMSO) supplemented with 1% (v/v) Sorensen’s glycine buffer. The absorbance was measured using a microplate reader (EPOCH 2, BioTek, Winooski, VT, USA) at a wavelength of 570 nm. The compounds were used at a final DMSO concentration of no more than 0.1% (v/v) in each well. The results were generated from at least three independent experiments. […] The IC50 values were calculated with GraphPad Prism 9 software (GraphPad Software, San Diego, CA, USA).

[9] = tested on: A375 melanoma cells; test: MTT cell viability assay, A375;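 further: Read-out is formazan absorbance at 570 nm after 2 h with MTT, with compounds in at most 0.1% v/v DMSO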
Experimental: as §3

[10] = tested on: C32 melanoma cells; test: Neutral red uptake (NRU) assay, C32
Experimental: (§4) The NRU (neutral red uptake) was conducted as previously described by Szoka and co-workers, with some modifications [22]. Briefly, melanoma cells and fibroblasts were seeded in microplates at the density of 1 × 10^4 cells per well and allowed to adhere for 24 h. […] After treatment, the culture medium was replaced with a neutral red solution (40 µg/mL). An additional 2 h of incubation was performed. The neutral red solution was then removed and the neutral red accumulated in the cells was dissolved in 50% EtOH with 1% of the glacial acetic acid. The absorbance was estimated at 540 nm and IC50 values were calculated using GraphPad Prism software (GraphPad Software, San Diego, CA, USA).

[11] = tested on: A375 melanoma cells; test: Neutral red uptake (NRU) assay, A375; conditions: read-out: IC50, cytotoxic activity, NRU assay
Experimental: as §4

[12] = MTT cell viability assay, normal cells; conditions: human;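 further: fibroblasts served as non-cancer comparison line for selectivity versus melanoma cells, MTT reduction read as absorbance at 570 nm after 2 h dye exposure, compounds in ≤0.1% DMSO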
Experimental: as §3

[13] = Neutral red uptake (NRU) assay, normal cells; conditions: human
Experimental: as §4

[14] = tested on: human skin fibroblasts (CCD25Sk); test: MTT cell viability assay, normal cells; conditions: read-out: IC50, cytotoxic activity, MTT test, Normal cells (fibroblasts);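 further: fibroblasts served as non-cancer comparison line for selectivity versus melanoma cells, MTT reduction read as absorbance at 570 nm after 2 h dye exposure, compounds in ≤0.1% DMSO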
Experimental: as §3

[15] = tested on: human skin fibroblasts (CCD25Sk); test: Neutral red uptake (NRU) assay, normal cells; conditions: read-out: IC50, cytotoxic activity, NRU assay, Normal cells (fibroblasts)
Experimental: as §4

[16] = tested on: A375 melanoma cells
Experimental: as §3

[17] = tested on: C32 melanoma cells
Experimental: as §3

[18] = tested on: human skin fibroblasts (CCD25Sk)
Experimental: as §3

[19] = tested on: A375 melanoma cells; remark: listed apart in the source
Experimental: as §4

[20] = tested on: C32 melanoma cells; remark: listed apart in the source
Experimental: as §4

[21] = tested on: human skin fibroblasts (CCD25Sk); remark: listed apart in the source
Experimental: as §4

[22] = Homo sapiens, A-375, A375, 24 h
[23] = Homo sapiens, A-375, A375, 48 h
[24] = Homo sapiens, A-375, A375, 72 h
[25] = human skin fibroblasts (CCD25Sk)
[26] = read-out: IC50, cytotoxic activity, NRU assay, C32, 24 h
[27] = read-out: IC50, cytotoxic activity, NRU assay, C32, 48 h
[28] = read-out: IC50, cytotoxic activity, NRU assay, C32, 72 h

IC50 ([1]; A375, 48 h): 32.4 ± 2.4 µM
IC50 [1, 22]: > 200 µM
IC50 [1, 23]: 32.4 ± 0.49 µM
IC50 [1, 24]: 31.4 ± 1.7 µM
IC50 ([2]; C32, 48 h): 20 ± 1.9 µM
IC50 ([2]; Homo sapiens, C32, C32, 24 h): > 200 µM
IC50 ([2]; Homo sapiens, C32, C32, 48 h): 20.1 ± 0.98 µM
IC50 ([2]; Homo sapiens, C32, C32, 72 h): 20.3 ± 1.2 µM
IC50 at 24 h [13, 25]: > 200 µM
IC50 at 48 h [13, 25]: 100 to 200 µM
IC50 at 72 h [13, 25]: 100 to 200 µM
Compound: O=c1cc(-c2ccccc2)oc2ccc(O)c(O)c12 [Compound 15, 5,6-dihydroxyflavone]
IC50 ([3]; 24 h): 175 ± 7.6 µM
IC50 ([3]; 48 h): > 200 µM
IC50 ([3]; 72 h): > 200 µM
level of early apoptotic cells ([4]; A375, 25 µM): 42.0 ± 4.5%
level of late apoptotic cells ([4]; A375, 25 µM): 8.9 ± 2.2%
expression of cleaved caspase-8 [5]: increased
cleaved PARP and caspase-9 [6]: generated cleaved PARP and caspase-9
caspase-3 expression [7]: notably extended
IC50 ([8]; Homo sapiens, C32, 24 h): 100 to 200 µM
IC50 ([8]; Homo sapiens, C32, 48 h): 47.5 ± 3.5 µM
IC50 ([8]; Homo sapiens, C32, 72 h): 23.5 ± 1.9 µM
IC50 ([9]; Homo sapiens, A-375, 24 h, read-out: IC50, cytotoxic activity, MTT test, A375, 24 h): 86 ± 6.3 µM
IC50 ([9]; Homo sapiens, A-375, 48 h, read-out: IC50, cytotoxic activity, MTT test, A375, 48 h): 36.4 ± 2 µM
IC50 ([9]; Homo sapiens, A-375, 72 h, read-out: IC50, cytotoxic activity, MTT test, A375, 72 h): 26.4 ± 1.2 µM
IC50 ([10]; Homo sapiens, C32, 24 h, read-out: IC50, cytotoxic activity, NRU assay, C32, 24 h): 72.6 ± 5.5 µM
IC50 ([10]; Homo sapiens, C32, 48 h, read-out: IC50, cytotoxic activity, NRU assay, C32, 48 h): 18.2 ± 2.1 µM
IC50 ([10]; Homo sapiens, C32, 72 h, read-out: IC50, cytotoxic activity, NRU assay, C32, 72 h): 15.4 ± 1.1 µM
IC50 ([11]; Homo sapiens, A-375, 24 h): 53.3 ± 4.6 µM
IC50 ([11]; Homo sapiens, A-375, 48 h): 16 ± 1.1 µM
IC50 ([11]; Homo sapiens, A-375, 72 h): 13.6 ± 1.1 µM
IC50 at 24 h [12, 25]: > 200 µM
IC50 at 48 h [12, 25]: > 200 µM
IC50 at 72 h [12, 25]: > 200 µM

Compound: kaempferol 3-O-galactoside [Compound 22]
IC50 ([8]; C32, 24 h): > 200 µM
IC50 ([8]; C32, 48 h): > 200 µM
IC50 ([8]; C32, 72 h): > 200 µM
IC50 ([9]; read-out: IC50, cytotoxic activity, MTT test, A375, 24 h): > 200 µM
IC50 ([9]; read-out: IC50, cytotoxic activity, MTT test, A375, 48 h): > 200 µM
IC50 ([9]; read-out: IC50, cytotoxic activity, MTT test, A375, 72 h): > 200 µM
IC50 [10, 26]: > 200 µM
IC50 [10, 27]: > 200 µM
IC50 [10, 28]: > 200 µM
IC50 ([11]; A375, 24 h): > 200 µM
IC50 ([11]; A375, 48 h): > 200 µM
IC50 ([11]; A375, 72 h): > 200 µM
IC50 ([14]; 24 h): > 200 µM
IC50 ([14]; 48 h): > 200 µM
IC50 ([14]; 72 h): > 200 µM
IC50 ([15]; 24 h): > 200 µM
IC50 ([15]; 48 h): > 200 µM
IC50 ([15]; 72 h): > 200 µM

IC50 ([1]; A375, 48 h): 28 ± 0.8 µM
IC50 [1, 22]: 154 ± 10.8 µM
IC50 [1, 23]: 28.1 ± 0.87 µM
IC50 [1, 24]: 24.2 ± 1.5 µM
IC50 ([2]; C32, 48 h): 18.5 ± 0.7 µM
IC50 ([2]; Homo sapiens, C32, C32, 24 h): 25.4 ± 1.3 µM
IC50 ([2]; Homo sapiens, C32, C32, 48 h): 18.5 ± 0.21 µM
IC50 ([2]; Homo sapiens, C32, C32, 72 h): 19.1 ± 0.3 µM
IC50 at 24 h [13]: > 200 µM
IC50 at 48 h [13]: 57.8 ± 4 µM
IC50 at 72 h [13]: 38.6 ± 3.7 µM
Compound: O=c1c(-c2ccc(O)cc2)coc2cc(O)cc(O)c12 [Compound 37, genistein]
IC50 ([3]; 24 h): > 200 µM
IC50 ([3]; 48 h): > 200 µM
IC50 ([3]; 72 h): > 200 µM
level of early apoptotic cells ([4]; A375, 50 µM): 38.1 ± 4.2%
level of late apoptotic cells ([4]; A375, 50 µM): 8.9 ± 1.9%
cleavage of initiator caspases, caspase-9 and caspase-8 [5]: cleavage of both initiator caspases
levels of the caspases-3 and -7 zymogens [5]: decreased levels
phosphorylation of the RSK protein [5]: impaired
cleaved PARP and caspase-9 [6]: generated cleaved PARP and caspase-9
phosphorylation of RSK [6]: inhibited
caspase-3 expression [7]: notably extended
IC50 ([8]; Homo sapiens, C32, 24 h): > 200 µM
IC50 ([8]; Homo sapiens, C32, 48 h): > 200 µM
IC50 ([8]; Homo sapiens, C32, 72 h): 51.1 ± 3.5 µM
IC50 ([9]; Homo sapiens, A-375, 24 h, read-out: IC50, cytotoxic activity, MTT test): 93.1 ± 5.8 µM
IC50 ([9]; Homo sapiens, A-375, 48 h, read-out: IC50, cytotoxic activity, MTT test): 60.9 ± 4.2 µM
IC50 ([10]; Homo sapiens, C32, 24 h, read-out: IC50, cytotoxic activity, NRU assay): 100 to 200 µM
IC50 ([10]; Homo sapiens, C32, 48 h, read-out: IC50, cytotoxic activity, NRU assay): 31.5 ± 2.8 µM
IC50 ([10]; Homo sapiens, C32, 72 h, read-out: IC50, cytotoxic activity, NRU assay): 14.4 ± 2.1 µM
IC50 ([11]; Homo sapiens, A-375, 24 h): 49.2 ± 3.2 µM
IC50 ([11]; Homo sapiens, A-375, 48 h): 32.3 ± 3.5 µM
IC50 ([11]; Homo sapiens, A-375, 72 h): 19.3 ± 2.2 µM
IC50 at 24 h [12]: > 200 µM
IC50 at 48 h [12]: 100 to 200 µM
IC50 at 72 h [12]: 56.8 ± 4.1 µM

IC50 [16]: > 200 µM
IC50 [17]: > 200 µM
IC50 [18]: > 200 µM
Compound: COc1ccc(-c2cc(=O)c3c(O)cc(O)c([C@@H]4OC[C@@H](O)[C@H](O)[C@H]4O[C@@H]4O[C@H](CO)[C@@H](O)[C@H](O)[C@H]4O)c3o2)cc1O [Compound 11, 5,7,3′-trihydroxy-4′-methoxyflavone-8-C-xyloside-2″-O-glucoside]
IC50 [10, 26]: > 200 µM
IC50 [10, 27]: > 200 µM
IC50 [10, 28]: > 200 µM
IC50 ([11]; A375, 24 h): > 200 µM
IC50 ([11]; A375, 48 h): > 200 µM
IC50 ([11]; A375, 72 h): > 200 µM
IC50 ([15]; 24 h): > 200 µM
IC50 ([15]; 48 h): > 200 µM
IC50 ([15]; 72 h): > 200 µM

Compound: COc1cc(-c2cc(=O)c3c(O)cc(O)c(C4OCC(O)C(O)C4OC4OC(CO)C(OC(C)=O)C(O)C4O)c3o2)ccc1OC(C)=O (stereo not shown) [Compound 13, 5,7-dihydroxy-3′-methoxy-4′-acetoxyflavone-8-C-arabinoside-2″-O-(4‴-acetoxy)-glucoside]
IC50 [16]: > 200 µM
IC50 [17]: > 200 µM
IC50 [18]: > 200 µM
IC50 [19]: > 200 µM
IC50 [20]: > 200 µM
IC50 [21]: > 200 µM

Compound: COc1cc(-c2cc(=O)c3c(O)cc(O)c([C@@H]4OC[C@@H](O)[C@H](O)[C@H]4O[C@@H]4O[C@H](CO)[C@@H](OC(C)=O)[C@H](O)[C@H]4O)c3o2)ccc1OC(C)=O [Compound 12, 5,7-dihydroxy-3′-methoxy-4′-acetoxyflavone-8-C-xyloside-2″-O-(4‴-acetoxy)-glucoside]
IC50 [16]: > 200 µM
IC50 [17]: > 200 µM
IC50 [18]: > 200 µM
IC50 [19]: > 200 µM
IC50 [20]: > 200 µM
IC50 [21]: > 200 µM

IC50 [16]: > 200 µM
IC50 [17]: > 200 µM
IC50 [18]: > 200 µM
IC50 [19]: > 200 µM
IC50 [20]: > 200 µM
IC50 [21]: > 200 µM
Compound: O=c1cc(-c2ccc(O)c(O)c2)oc2cc(OC3OC(CO)C(O)C(O)C3OC3OCC(O)C(O)C3O)cc(O)c12 (stereo not shown) [Compound 9, luteolin 7-O-sambubioside]

Compound: CC(=O)Oc1ccc(-c2cc(=O)c3c(O)cc(O)c([C@@H]4OC[C@@H](O)[C@H](O)[C@H]4O[C@@H]4O[C@H](CO)[C@@H](O)[C@H](O)[C@H]4O)c3o2)cc1O [Compound 10, 5,7,3′-trihydroxy-4′-acetoxy-flavone-8-C-xyloside-2″-O-glucoside]
IC50 [16]: > 200 µM
IC50 [17]: > 200 µM
IC50 [18]: > 200 µM
IC50 [10, 26]: > 200 µM
IC50 [10, 27]: > 200 µM
IC50 [10, 28]: > 200 µM
IC50 ([11]; A375, 24 h): > 200 µM
IC50 ([11]; A375, 48 h): > 200 µM
IC50 ([11]; A375, 72 h): > 200 µM
IC50 ([15]; 24 h): > 200 µM
IC50 ([15]; 48 h): > 200 µM
IC50 ([15]; 72 h): > 200 µM
